# In patent publication US20230381332A1, “Deuterated Camptothecin Derivative And Antibody-drug Conjugate Thereof” (Baili-Bio (Chengdu) Pharmaceutical Co., Ltd., priority 2020, published 2023):
# Experiment: Clearance half-life test of deuterated camptothecin drugs in liver microsomes
# Format: in vitro ADME, Human
# Settings: human liver microsomes 1.0 mg/ml, 10 μM test article, NADPH 1.0 mM, 37° C., 120 minutes
# Experimental: Embodiment 36: Clearance Half-Life Test of Deuterated Camptothecin Drugs
# Human liver microsomes (supplied by Xenotech))
# 1. Add the working solution of the test substance to the liver microsome working solution and pre-incubate at 37° C. for 5 minutes, then add the prepared NADPH working solution and mix well. Make the reaction volume of the incubation system reach 200 μL, and the liver microsomes concentration in the incubation system is 1.0 mg/mL, the test substance concentration is 10 μM. The incubation tube is incubated in a water bath at 37° C. for 120 minutes. In the incubation system of the test substance, total organic solvents (DMSO and acetonitrile or other organic The minimum volume content of the solvent) is <1%, and the DMSO content is <0.1%. All operations are performed on wet ice.
# 2. For the blank sample, add the corresponding volume of phosphate buffer solution instead of the working solution of the test substance. For the 0 min sample, first add the stop solution and the liver microsome solution and mix well, and then add the working solution of the test substance.
# 3. At the end of the incubation, add 400 μL of stop solution to terminate the reaction, and remove the incubation sample from the water bath.
# 4. After the reaction was terminated, the sample was shaken and centrifuged at a centrifugal force of 4700 g for 10 minutes. After centrifugation, 200 μL of the supernatant was pipetted into a 96-well plate and directly used for LC-MS analysis to analyze metabolites and main drug ratio.
row,SMILES,Ratio of main drug after incubation
1,"CC[C@@]1(O)C(=O)OCc2c1cc1n(c2=O)Cc2c-1nc1cc(F)c(C)c3c1c2[C@@H](NC(=O)CO)CC3 [Compound 2, reference compound]",65%
2,[2H]C(O)C(=O)N[C@H]1CCc2c(C)c(F)cc3nc4c(c1c23)Cn1c-4cc2c(c1=O)COC(=O)[C@]2(O)CC (stereo partly drawn) [D-D1],98%

# Same assay, conditions: human, 120 min, 10 μM
row,SMILES,Ratio of main drug after incubation
1,"CC[C@@]1(O)C(=O)OCc2c1cc1n(c2=O)Cc2c-1nc1cc(F)c(C)c3c1c2[C@@H](NC(=O)[C@H](C)O)CC3 [Compound 3, reference compound]",56%
2,"CC[C@@]1(O)C(=O)OCc2c1cc1n(c2=O)Cc2c-1nc1cc(F)c(C)c3c1c2[C@@H](NC(=O)[C@H](O)C(F)(F)F)CC3 [Compound 5, reference compound]",73%
3,"CC[C@@]1(O)C(=O)OCc2c1cc1n(c2=O)Cc2c-1nc1cc(F)c(C)c3c1c2[C@@H](NC(=O)[C@@H](O)C1CC1)CC3 [Compound 7, reference compound]",85%
4,[2H]C(C)(O)C(=O)N[C@H]1CCc2c(C)c(F)cc3nc4c(c1c23)Cn1c-4cc2c(c1=O)COC(=O)[C@]2(O)CC (stereo partly drawn) [D-D3],97%
5,[2H]C(O)(C(=O)N[C@H]1CCc2c(C)c(F)cc3nc4c(c1c23)Cn1c-4cc2c(c1=O)COC(=O)[C@]2(O)CC)C(F)(F)F (stereo partly drawn) [D-D5],99%
6,[2H]C(O)(C(=O)N[C@H]1CCc2c(C)c(F)cc3nc4c(c1c23)Cn1c-4cc2c(c1=O)COC(=O)[C@]2(O)CC)C1CC1 (stereo partly drawn) [D-D7],96%
7,[2H]C([2H])([2H])C([2H])(O)C(=O)N[C@H]1CCc2c(C)c(F)cc3nc4c(c1c23)Cn1c-4cc2c(c1=O)COC(=O)[C@]2(O)CC (stereo partly drawn) [D-D11],96%
8,[2H]C([2H])([2H])N(C(=O)CO)[C@@H]1CCc2c(C)c(F)cc3nc4c(c1c23)Cn1c-4cc2c(c1=O)COC(=O)[C@]2(O)CC [D-D15],91%
9,[2H]C([2H])([2H])C(O)C(=O)N(C)[C@@H]1CCc2c(C)c(F)cc3nc4c(c1c23)Cn1c-4cc2c(c1=O)COC(=O)[C@]2(O)CC (stereo partly drawn) [D-D19],97%
